Laboratory results from ChEMBL document CHEMBL5370540, “Discovery of pyrimidine-5-carboxamide derivatives as novel salt-inducible kinases (SIKs) inhibitors for inflammatory bowel disease (IBD) treatment” (Eur J Med Chem, 2023).
The source made the active and inactive calls. No cut-off for these calls is given here.

How the values were obtained:
[1] = target: Serine/threonine-protein kinase SIK1 (Homo sapiens, UniProt P57059); test: Inhibition of SIK1 (unknown origin)
[2] = target: Serine/threonine-protein kinase SIK3 (Homo sapiens, UniProt Q9Y2K2); test: Inhibition of SIK3 (unknown origin)
[3] = Selectivity ratio of IC50 for SIK1 (unknown origin) to IC50 for SIK2 (unknown origin)
[4] = Selectivity ratio of IC50 for SIK3 (unknown origin) to IC50 for SIK2 (unknown origin)
[5] = target: Tyrosine-protein kinase ABL1 (Homo sapiens) (UniProt P00519); test: Inhibition of Abl (unknown origin) at 1 uM
[6] = target: Protein-tyrosine kinase 6 (Homo sapiens) (UniProt Q13882); test: Inhibition of BRK (unknown origin) at 1 uM
[7] = target: Activated CDC42 kinase 1 (Homo sapiens) (UniProt Q07912); test: Inhibition of ACK1 (unknown origin) at 1 uM
[8] = target: Tyrosine-protein kinase Fgr (Homo sapiens) (UniProt P09769); test: Inhibition of Fgr (unknown origin) at 1 uM
[9] = target: Cytoplasmic tyrosine-protein kinase BMX (Homo sapiens) (UniProt P51813); test: Inhibition of Bmx (unknown origin) at 1 uM
[10] = target: Tyrosine-protein kinase Tec (Homo sapiens) (UniProt P42680); test: Inhibition of Tec (unknown origin) at 1 uM
[11] = AUC (0 to t) in Sprague-Dawley rat at 5 mg/kg, iv measured upto 24 hrs by LC/MS/MS analysis; type: ADME, organism-based; set-up: time < 24 hrs, dose 5 mg/kg, route iv; details: in vivo
[12] = Tmax in Sprague-Dawley rat at 5 mg/kg, iv measured upto 24 hrs by LC/MS/MS analysis; type: ADME, organism-based; details: in vivo
[13] = Clearance in Sprague-Dawley rat at 5 mg/kg, iv measured upto 24 hrs by LC/MS/MS analysis; type: ADME, organism-based; details: in vivo
[14] = Clearance in Sprague-Dawley rat at 10 mg/kg, po measured upto 24 hrs by LC/MS/MS analysis; type: ADME, organism-based; details: in vivo
[15] = tested on: BMDM; test: Anti-inflammatory activity against C57BL/6J mouse BMDM cells assessed as decrease in IL-12 level at 500 nM preincubated for 1 hr followed by LPS stimulation measured after 4 to 8 hrs by ELISA method; type: functional, cell-based; details: time 5-9 hrs
[16] = tested on: BMDM; test: Anti-inflammatory activity against C57BL/6J mouse BMDM cells assessed as decrease in IL-12 level at 500 nM preincubated for 1 hr followed by LPS stimulation measured after 8 hrs by ELISA method; type: functional, cell-based; details: time 9.0 hrs
[17] = target: Serine/threonine-protein kinase SIK2 (Mus musculus) (UniProt Q8CFH6); test: Inhibition of SIK2 in C57BL/6J mouse BMDM cells assessed as increase in IL-10 mRNA level at 500 nM preincubated for 1 hr followed by LPS stimulation measured for 2 to 4 hrs by qPCR analysis; type: cell-based; details: time 3-5 hrs
[18] = target: Serine/threonine-protein kinase SIK2 (Mus musculus) (UniProt Q8CFH6); test: Inhibition of SIK2 in C57BL/6J mouse BMDM cells assessed as increase in c-FOS mRNA level at 500 nM preincubated for 1 hr followed by LPS stimulation measured for 2 to 4 hrs by qPCR analysis; type: cell-based; details: time 3-5 hrs
[19] = target: Serine/threonine-protein kinase SIK2 (Mus musculus) (UniProt Q8CFH6); test: Inhibition of SIK2 in C57BL/6J mouse BMDM cells assessed as increase in Nurr77 mRNA level at 500 nM preincubated for 1 hr followed by LPS stimulation measured for 2 to 4 hrs by qPCR analysis; type: cell-based; details: time 3-5 hrs
[20] = target: Serine/threonine-protein kinase SIK2 (Mus musculus) (UniProt Q8CFH6); test: Inhibition of SIK2 in C57BL/6J mouse BMDM cells assessed as increase in IL-12 mRNA level at 500 nM preincubated for 1 hr followed by LPS stimulation measured for 1 hr by qPCR analysis; type: cell-based; details: time 2.0 hrs
[21] = target: Serine/threonine-protein kinase SIK2 (Mus musculus) (UniProt Q8CFH6); test: Inhibition of SIK2 in C57BL/6J mouse BMDM cells assessed as increase in LIGHT mRNA level at 500 nM preincubated for 1 hr followed by LPS stimulation measured upto 8 hrs by qPCR analysis; type: cell-based; details: time <= 9.0 hrs
[22] = tested on: Mus musculus; test: Antiinflammatory activity in DSS-induced colitis C57BL/6J mouse model assessed as increase in body weight at 7.5 to 30 mg/kg, ip; type: functional, organism-based; details: dose 7.5-30 mg/kg
[23] = tested on: Mus musculus; test: Antiinflammatory activity in DSS-induced colitis C57BL/6J mouse model assessed as decrease in disease activity index at 7.5 to 30 mg/kg, ip; type: functional, organism-based; details: dose 7.5-30 mg/kg
[24] = tested on: Mus musculus; test: Antiinflammatory activity in DSS-induced colitis C57BL/6J mouse model assessed as increase in colon length at 7.5 to 30 mg/kg, ip measured after 12 days; type: functional, organism-based; details: dose 7.5-30 mg/kg, time 12.0 day
[25] = tested on: Mus musculus; test: Antiinflammatory activity in DSS-induced colitis C57BL/6J mouse model assessed as increase in colon length at 50 to 100 mg/kg, po measured after 12 days; type: functional, organism-based; details: dose 50-100 mg/kg, time 12.0 day

Chain of Serine/threonine-protein kinase SIK2 (Mus musculus) (Q8CFH6 whole entry): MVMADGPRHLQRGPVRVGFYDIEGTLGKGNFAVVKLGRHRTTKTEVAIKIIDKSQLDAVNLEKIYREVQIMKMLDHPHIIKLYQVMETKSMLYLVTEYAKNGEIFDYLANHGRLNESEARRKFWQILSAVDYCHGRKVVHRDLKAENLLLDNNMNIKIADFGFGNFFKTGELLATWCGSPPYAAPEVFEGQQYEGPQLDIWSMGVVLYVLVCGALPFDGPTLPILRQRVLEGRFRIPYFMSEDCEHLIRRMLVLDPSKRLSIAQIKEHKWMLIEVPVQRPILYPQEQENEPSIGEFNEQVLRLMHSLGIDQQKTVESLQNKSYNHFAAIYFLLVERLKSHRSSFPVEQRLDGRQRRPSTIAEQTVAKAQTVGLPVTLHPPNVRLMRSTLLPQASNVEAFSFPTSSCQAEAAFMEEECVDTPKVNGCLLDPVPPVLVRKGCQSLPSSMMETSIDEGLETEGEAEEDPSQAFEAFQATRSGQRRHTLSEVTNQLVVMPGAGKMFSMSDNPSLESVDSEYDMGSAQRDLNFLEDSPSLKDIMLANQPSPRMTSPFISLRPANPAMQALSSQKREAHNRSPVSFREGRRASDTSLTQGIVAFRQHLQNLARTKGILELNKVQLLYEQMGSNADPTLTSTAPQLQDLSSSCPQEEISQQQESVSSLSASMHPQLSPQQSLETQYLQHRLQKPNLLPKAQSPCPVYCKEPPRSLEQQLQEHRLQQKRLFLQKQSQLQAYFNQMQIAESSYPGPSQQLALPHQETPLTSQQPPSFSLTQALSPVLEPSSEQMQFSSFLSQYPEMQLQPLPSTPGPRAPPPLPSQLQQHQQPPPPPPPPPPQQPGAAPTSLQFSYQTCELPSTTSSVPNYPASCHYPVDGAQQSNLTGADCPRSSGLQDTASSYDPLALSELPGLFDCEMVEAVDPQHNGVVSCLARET
Chain of Tyrosine-protein kinase Fgr (Homo sapiens) (P09769 2-529 limits assumed): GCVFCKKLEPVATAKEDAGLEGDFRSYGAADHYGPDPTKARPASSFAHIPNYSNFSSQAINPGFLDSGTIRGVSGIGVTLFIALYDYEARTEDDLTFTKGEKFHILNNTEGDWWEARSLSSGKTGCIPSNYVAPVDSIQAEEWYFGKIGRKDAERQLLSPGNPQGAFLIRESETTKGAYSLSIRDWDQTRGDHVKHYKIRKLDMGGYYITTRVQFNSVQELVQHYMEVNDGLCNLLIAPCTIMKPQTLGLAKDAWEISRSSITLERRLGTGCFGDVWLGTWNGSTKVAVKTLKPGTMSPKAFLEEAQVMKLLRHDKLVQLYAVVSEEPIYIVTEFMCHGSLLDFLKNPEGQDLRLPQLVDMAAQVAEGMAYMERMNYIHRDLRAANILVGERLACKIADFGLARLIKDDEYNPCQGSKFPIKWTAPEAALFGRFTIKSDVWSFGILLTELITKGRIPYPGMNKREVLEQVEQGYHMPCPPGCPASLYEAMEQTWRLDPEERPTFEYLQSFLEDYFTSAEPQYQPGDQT
Chain of Cytoplasmic tyrosine-protein kinase BMX (Homo sapiens) (P51813 whole entry): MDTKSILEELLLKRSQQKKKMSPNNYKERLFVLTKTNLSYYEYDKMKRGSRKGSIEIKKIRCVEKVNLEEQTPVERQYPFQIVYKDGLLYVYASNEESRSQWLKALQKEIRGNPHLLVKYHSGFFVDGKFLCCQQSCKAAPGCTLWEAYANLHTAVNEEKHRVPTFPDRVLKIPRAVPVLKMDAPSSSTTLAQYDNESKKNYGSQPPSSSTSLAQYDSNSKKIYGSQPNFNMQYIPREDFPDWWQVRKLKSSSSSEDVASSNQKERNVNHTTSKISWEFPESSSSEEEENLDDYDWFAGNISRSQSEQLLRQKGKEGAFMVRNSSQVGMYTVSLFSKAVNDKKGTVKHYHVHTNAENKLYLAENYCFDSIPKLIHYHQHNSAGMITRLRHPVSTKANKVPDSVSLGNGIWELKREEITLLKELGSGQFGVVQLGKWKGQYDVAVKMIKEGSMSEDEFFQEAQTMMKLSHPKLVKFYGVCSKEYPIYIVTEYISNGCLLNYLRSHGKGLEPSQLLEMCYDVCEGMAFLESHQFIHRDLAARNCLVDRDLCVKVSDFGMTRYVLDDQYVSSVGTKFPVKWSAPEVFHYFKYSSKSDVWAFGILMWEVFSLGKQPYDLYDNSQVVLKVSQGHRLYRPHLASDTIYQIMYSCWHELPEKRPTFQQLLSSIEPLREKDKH
Chain of Protein-tyrosine kinase 6 (Homo sapiens) (Q13882 whole entry, looked up): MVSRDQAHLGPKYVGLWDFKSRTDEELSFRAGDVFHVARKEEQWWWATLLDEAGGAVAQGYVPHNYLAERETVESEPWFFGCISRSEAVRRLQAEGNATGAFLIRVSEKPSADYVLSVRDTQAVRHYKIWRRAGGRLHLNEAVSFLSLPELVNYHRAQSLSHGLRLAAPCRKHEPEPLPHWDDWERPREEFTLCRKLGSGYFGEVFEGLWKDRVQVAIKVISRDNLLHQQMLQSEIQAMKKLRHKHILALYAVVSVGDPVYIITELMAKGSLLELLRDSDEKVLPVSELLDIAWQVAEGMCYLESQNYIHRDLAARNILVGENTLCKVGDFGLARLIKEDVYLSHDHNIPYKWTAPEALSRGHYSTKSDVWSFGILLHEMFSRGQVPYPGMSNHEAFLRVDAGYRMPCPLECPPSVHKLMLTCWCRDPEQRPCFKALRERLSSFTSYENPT
Chain of Tyrosine-protein kinase ABL1 (Homo sapiens) (P00519 whole entry): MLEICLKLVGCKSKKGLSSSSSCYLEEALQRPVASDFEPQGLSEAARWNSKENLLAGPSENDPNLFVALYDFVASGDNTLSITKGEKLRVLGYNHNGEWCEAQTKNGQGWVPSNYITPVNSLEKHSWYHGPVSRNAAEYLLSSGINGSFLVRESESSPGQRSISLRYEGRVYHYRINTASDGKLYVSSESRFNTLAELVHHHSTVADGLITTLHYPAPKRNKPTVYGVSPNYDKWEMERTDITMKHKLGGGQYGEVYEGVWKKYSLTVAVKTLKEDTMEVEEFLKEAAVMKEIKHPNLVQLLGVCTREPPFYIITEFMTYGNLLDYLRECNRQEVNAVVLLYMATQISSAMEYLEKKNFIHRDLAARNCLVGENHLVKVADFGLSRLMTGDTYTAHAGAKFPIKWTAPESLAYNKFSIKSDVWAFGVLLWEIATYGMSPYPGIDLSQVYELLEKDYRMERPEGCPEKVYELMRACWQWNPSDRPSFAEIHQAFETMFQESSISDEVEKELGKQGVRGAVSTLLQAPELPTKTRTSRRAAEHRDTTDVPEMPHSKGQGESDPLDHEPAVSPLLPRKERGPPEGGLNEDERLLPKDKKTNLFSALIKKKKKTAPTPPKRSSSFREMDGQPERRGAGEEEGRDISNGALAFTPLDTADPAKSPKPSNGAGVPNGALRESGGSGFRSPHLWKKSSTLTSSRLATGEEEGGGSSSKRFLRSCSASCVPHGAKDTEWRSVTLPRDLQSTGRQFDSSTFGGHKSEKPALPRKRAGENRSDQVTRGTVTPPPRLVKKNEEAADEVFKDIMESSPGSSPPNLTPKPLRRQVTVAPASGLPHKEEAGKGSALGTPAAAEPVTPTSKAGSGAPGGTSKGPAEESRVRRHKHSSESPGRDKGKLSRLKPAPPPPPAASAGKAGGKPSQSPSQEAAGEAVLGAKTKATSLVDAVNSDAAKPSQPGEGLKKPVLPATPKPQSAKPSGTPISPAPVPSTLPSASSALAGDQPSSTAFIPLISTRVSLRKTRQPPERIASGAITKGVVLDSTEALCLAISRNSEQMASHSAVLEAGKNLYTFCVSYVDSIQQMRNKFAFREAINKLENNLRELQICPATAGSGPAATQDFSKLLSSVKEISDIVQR
Chain of Serine/threonine-protein kinase SIK1 (P57059 whole entry): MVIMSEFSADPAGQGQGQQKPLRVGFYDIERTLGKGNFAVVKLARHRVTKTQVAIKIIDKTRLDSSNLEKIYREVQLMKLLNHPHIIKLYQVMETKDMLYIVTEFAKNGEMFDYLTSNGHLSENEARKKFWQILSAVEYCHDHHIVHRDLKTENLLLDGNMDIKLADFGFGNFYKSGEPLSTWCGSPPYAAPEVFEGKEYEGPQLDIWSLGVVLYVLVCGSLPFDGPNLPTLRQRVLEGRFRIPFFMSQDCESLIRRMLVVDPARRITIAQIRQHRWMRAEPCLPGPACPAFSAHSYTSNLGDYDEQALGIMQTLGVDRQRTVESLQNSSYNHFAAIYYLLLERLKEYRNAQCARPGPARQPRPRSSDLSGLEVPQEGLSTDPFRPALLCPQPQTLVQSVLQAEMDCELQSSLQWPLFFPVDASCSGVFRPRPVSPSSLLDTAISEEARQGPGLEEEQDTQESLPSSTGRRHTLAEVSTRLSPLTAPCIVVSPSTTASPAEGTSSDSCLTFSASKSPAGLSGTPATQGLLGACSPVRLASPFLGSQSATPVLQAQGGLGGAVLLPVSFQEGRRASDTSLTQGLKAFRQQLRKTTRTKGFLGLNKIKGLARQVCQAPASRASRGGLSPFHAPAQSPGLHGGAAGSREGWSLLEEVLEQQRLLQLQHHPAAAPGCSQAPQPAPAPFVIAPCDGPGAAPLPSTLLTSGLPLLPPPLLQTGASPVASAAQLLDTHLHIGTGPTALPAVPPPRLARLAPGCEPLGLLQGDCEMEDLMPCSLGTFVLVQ

Cc1cccc(F)c1NC(=O)c1cnc(Nc2ccc(N3CCN(C)CC3)c(F)c2)nc1NC1CCC1
IC50 [1]: 0.024 µM
IC50 [2]: 0.146 µM
Ratio IC50 [3]: 3
Ratio IC50 [4]: 18.3
inhibition [5]: Active
inhibition [6]: Active
inhibition [7]: Active
inhibition [8]: Active
inhibition [9]: Active
inhibition [10]: Active
AUC(0-t) at 24 h [11]: 20300 ng·h/mL
Tmax [12]: 6 min
clearance [13]: 3.33 mL/min/kg
CL/F [14]: 11.7 mL/min/kg
Activity [15]: inactive
Activity [16]: Active
inhibition [17]: inactive
inhibition [18]: inactive
inhibition [19]: inactive
inhibition [20]: Active
inhibition [21]: Active
Activity [22]: Active
Activity [23]: Active
Activity [24]: Active
Activity [25]: Active
